Entries after “also recorded” stand apart in the source; their conditions may differ. Where two headings read alike, the source gives them in different places.
Assays:
[1] = target: DiaaNaC (diarylamidine-activated Na+ channel) (Novocrania anomala, UniProt A0AAU8BSW0); test: Two-electrode voltage clamp of Xenopus laevis oocytes expressing WT DiaaNaC; assay type: cell-based; details: for inward currents in absence of extracellular Na+: 1 mM compound, 140 KCl instead of NaCl; for activation of DiaaNaC (agonist activity): compound at 1 mM; for reversal potential (Erev) of pentamidine-gated current: n = 5
Method: (§1) Before electrophysiological recordings or surface expression determination, the oocytes were cultured for 3 days at 18 °C in 50% Leibowitz medium (L1518, Merck), supplemented with 0.25 mg/ml gentamicin, 1 mM L-glutamine, and 15 mM Hepes (pH 7.6). For surface expression detection, mouse anti-Myc tag monoclonal IgG1 antibody (MA121316, Fisher Scientific) was used to detect the myc tag attached to the 3′-end of all the constructs used in this work, and the protocol previously used in our lab was followed ([47]) using a Zeiss Axio Scope A1 microscope. The intensity of the expression signal was quantified by tracing a perpendicular line across the oocyte membrane and measuring the gray values with ImageJ software ([48]).
Whole cell currents were recorded from oocytes by two-electrode voltage clamp using an OC-725D amplifier (Warner Instruments) controlled via an Axon Digitata 1550B interface and pClamp v11 (Molecular Devices), acquired at 1 kHz, and filtered at 200 Hz. Currents were analyzed in pClamp v10.7 software (Molecular Devices) and additionally filtered at 10 Hz for display in figures. Oocytes were clamped at −60 mV, unless otherwise indicated, and continuously perfused with a bath solution containing (in mM): 140 NaCl, 1.8 BaCl2, and 10 Hepes. The pH was adjusted to 7.5 with NaOH, HCl, or KOH, as appropriate. For current–voltage relationships where K^+ replaced Na^+, KCl replaced NaCl in the above bath solution. In most experiments, activating solution was applied to oocytes in between resting periods of at least 30 to 60 s. After retrieving current amplitude from pClamp, all data were analyzed in Prism v9 (GraphPad Software). Currents were normalized by dividing by the maximum current at that oocyte, giving “I/Imax” in most concentration–response graphs. For graphs in figures and for calculating half-maximal effective (or inhibitory) concentration (EC50 or IC50) values, variable slope nonlinear regression was used in Prism v9, with the equation Y = Bottom + (Top-Bottom)/ […] 10^∧((LogEC50-X)∗HillSlope)), and maximum was constrained to one and minimum to zero. Curves in figures are fit to the mean data points. EC50 and IC50 values reported in text and used in statistical comparisons are means from curve fits to data on individual oocytes.

DiaaNaC L70S = test: Two-electrode voltage clamp, DiaaNaC L70S mutant in oocytes; assay type: cell-based, Novocrania anomala; details: 0 mV
Source text: The DiaaNaC full-length coding sequence was amplified by PCR from N. anomala cDNA and subcloned via SalI and BamHI sites into a pSP64 (polyA) vector (P1241, Promega) modified to contain the X. laevis globin 5′ and 3′ UTRs and a C-terminal Myc-tag linked to the final DiaaNaC residue via Gly-Ser linker (the BamHI site) (see ([20]) for full vector sequence). The cDNA sequence was deposited in NCBI GenBank accession number PP942623. Recombinant PCR with Phusion High-Fidelity DNA polymerase (F-549L, Thermo Fisher Scientific) was used to perform site-directed mutagenesis, as described previously ([45]). […]
Before electrophysiological recordings or surface expression determination, the oocytes were cultured for 3 days at 18 °C in 50% Leibowitz medium (L1518, Merck), supplemented with 0.25 mg/ml gentamicin, 1 mM L-glutamine, and 15 mM Hepes (pH 7.6). […] The intensity of the expression signal was quantified by tracing a perpendicular line across the oocyte membrane and measuring the gray values with ImageJ software ([48]).
Whole cell currents were recorded from oocytes by two-electrode voltage clamp using an OC-725D amplifier (Warner Instruments) controlled via an Axon Digitata 1550B interface and pClamp v11 (Molecular Devices), acquired at 1 kHz, and filtered at 200 Hz. Currents were analyzed in pClamp v10.7 software (Molecular Devices) and additionally filtered at 10 Hz for display in figures. […]

DiaaNaC G6′S = test: Two-electrode voltage clamp, DiaaNaC G6′S mutant in oocytes; assay type: cell-based, Novocrania anomala
Source text: (§2) The DiaaNaC full-length coding sequence was amplified by PCR from N. anomala cDNA and subcloned via SalI and BamHI sites into a pSP64 (polyA) vector (P1241, Promega) modified to contain the X. laevis globin 5′ and 3′ UTRs and a C-terminal Myc-tag linked to the final DiaaNaC residue via Gly-Ser linker (the BamHI site) (see ([20]) for full vector sequence). The cDNA sequence was deposited in NCBI GenBank accession number PP942623. Recombinant PCR with Phusion High-Fidelity DNA polymerase (F-549L, Thermo Fisher Scientific) was used to perform site-directed mutagenesis, as described previously ([45]). […] EcoRI (FD0274, Thermo Fisher Scientific) was used to linearize the cDNAs via a site shortly after the poly(A) sequence, and the mMESSAGE mMACHINE SP6 Transcription Kit (AM1340, Thermo Fisher Scientific) was used to synthesize cRNA.
as §1
(§3) Whole cell currents were recorded from oocytes by two-electrode voltage clamp using an OC-725D amplifier (Warner Instruments) controlled via an Axon Digitata 1550B interface and pClamp v11 (Molecular Devices), acquired at 1 kHz, and filtered at 200 Hz. Currents were analyzed in pClamp v10.7 software (Molecular Devices) and additionally filtered at 10 Hz for display in figures. […] After retrieving current amplitude from pClamp, all data were analyzed in Prism v9 (GraphPad Software). […]

DiaaNaC E358A = test: Two-electrode voltage clamp, DiaaNaC E358A mutant in oocytes; assay type: cell-based, Novocrania anomala
Source text: as §2, §1, §3

DiaaNaC E82A = test: Two-electrode voltage clamp, DiaaNaC E82A mutant in oocytes; assay type: cell-based, Novocrania anomala
Source text: as §2, §1, §3

Chain of DiaaNaC (diarylamidine-activated Na+ channel) (A0AAU8BSW0 entry or part of it): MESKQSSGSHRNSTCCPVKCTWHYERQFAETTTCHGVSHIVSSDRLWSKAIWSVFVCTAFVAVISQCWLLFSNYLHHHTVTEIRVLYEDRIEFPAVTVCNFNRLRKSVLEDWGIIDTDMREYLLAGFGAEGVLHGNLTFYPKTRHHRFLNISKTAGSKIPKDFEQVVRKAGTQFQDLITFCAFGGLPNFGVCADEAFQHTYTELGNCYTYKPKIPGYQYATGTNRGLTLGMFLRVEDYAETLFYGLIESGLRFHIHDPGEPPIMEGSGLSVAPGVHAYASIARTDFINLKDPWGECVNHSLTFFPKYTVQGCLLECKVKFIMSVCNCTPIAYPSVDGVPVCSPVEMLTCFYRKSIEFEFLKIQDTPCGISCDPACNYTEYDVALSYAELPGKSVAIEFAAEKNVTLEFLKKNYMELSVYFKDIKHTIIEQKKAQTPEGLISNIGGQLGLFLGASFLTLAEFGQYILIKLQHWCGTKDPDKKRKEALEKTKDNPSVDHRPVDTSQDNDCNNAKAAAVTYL

For `N=C(N)c1ccc(-c2cc3ccc(C(=N)N)cc3[nH]2)cc1` [DAPI, 4′,6-diamidino-2-phenylindole], the “inward currents in absence of extracellular Na+” value ([1]; −60 mV) was “tiny, if any”.

With `Cc1nc(N=C(N)N)nc2ccccc12` [GMQ, 2-(4-methylquinazolin-2-yl)guanidine] the “activation of DiaaNaC (agonist activity)” value ([1]; −60 mV) was “none of these compounds activated”.

Compound `C[C@H](CCC(=O)O)[C@H]1CC[C@H]2[C@@H]3[C@@H](O)C[C@@H]4C[C@H](O)CC[C@]4(C)[C@H]3CC[C@]12C` [Ursodeoxycholic acid, ursodeoxycholic acid] has a current activated ([1]; UDCA 2 mM, −60 mV, n = 7) of 73.1 ± 10 nA.

For `NC(N)=NCCCCN=C(N)N` [arcaine], the “activation of DiaaNaC (agonist activity)” value ([1]; −60 mV) was “neither activated; also recorded: none of these compounds activated”.

In the case of `N=C(N)c1ccc(/N=N/Nc2ccc(C(=N)N)cc2)cc1` [diminazene], the diminazene-gated currents (DiaaNaC L70S) is reported as “abolished”, the “diminazene potency compared to WT” value (DiaaNaC G6′S; 0 mV) is reported as “significantly reduced” and the “diminazene agonist potency compared to WT” value (DiaaNaC G6′S; −60 mV) is reported as “decrease in agonist potency”. The “channel block by diminazene” value (DiaaNaC G6′S; −60 mV, even at 3 mM diminazene) was “block was not evident”, the “diminazene potency compared to WT” value (DiaaNaC E358A; 0 mV) was “significantly reduced” and the “diminazene agonist potency compared to WT” value (DiaaNaC E358A; −60 mV) was “decrease in agonist potency”. For the same compound, the “diminazene concentration at which block occurs” value (DiaaNaC E358A; −60 mV) was 3 mM, the “diminazene potency compared to WT” value (DiaaNaC E82A; 0 mV) was “significantly reduced” and the “diminazene agonist potency compared to WT” value (DiaaNaC E82A; −60 mV) was “decrease in agonist potency”. For the same compound, the “channel block by diminazene” value (DiaaNaC E82A; −60 mV, 1 and 3 mM diminazene) was “noticeable block develops”, the “inward currents in absence of extracellular Na+” value ([1]; −60 mV) was “tiny, if any” and the “concentration that activates DiaaNaC” value ([1]; WT) was ≥ 300 µM. For the same compound, the “concentration that blocks DiaaNaC” value ([1]; WT) was ≥ 1 mM, the “effect on constitutive current” value ([1]; diminazene 1 mM, absence of Ca2+) was “without inhibiting the constitutive current” and the inward currents activated ([1]; diminazene 1 mM, absence of Ca2+, −60 mV, n = 7) was 1.0 ± 0.2 μA. For the same compound, the EC50 ([1]; holding potential 0 mV, WT, read-out: diminazene EC50 for activation) was 409 ± 71 µM, the EC50 ([1]; −60 mV, absence of Ca2+, WT, read-out: EC50 for activation of DiaaNaC) was 287 µM and the inhibition at 1000 µM ([1]; −100 mV, 1 mM diminazene, read-out: block of the agonist-gated current) was ~100%.

In the case of `N=C(N)c1ccc(OCCCCCOc2ccc(C(=N)N)cc2)cc1` [pentamidine], the “reversal potential (Erev) of pentamidine-gated current” value (from here on “reversal potential (Erev)”) ([1]; 150 μM pentamidine, extracellular NaCl) is reported as 53.5 ± 5.0 mV, the “reversal potential (Erev)” value ([1]; 450 μM pentamidine, extracellular NaCl) is reported as 57.6 ± 3.4 mV and the “pentamidine EC50 in the presence of amiloride” value ([1]; 600 μM amiloride) is reported as “not significantly altered”. The EC50 ([1]; EC50 for activation of DiaaNaC, −60 mV, absence of Ca2+, WT) was 592 ± 30.7 µM, the “reversal potential (Erev)” value ([1]; K+ the only monovalent cation in extracellular solution, pentamidine 450 μM, estimated) was −12.2 ± 4.6 mV and the EC50 ([1]; pentamidine EC50, +10 mV, n = 4) was 959 ± 80.7 µM. The EC50 ([1]; pentamidine EC50, +80 mV, n = 4) was 1030 ± 101 µM, the EC50 ([1]; pentamidine EC50, −100 mV) was 471 ± 38.4 µM and the EC50 ([1]; pentamidine EC50 with Ca2+, 1.8 mM Ca2+, n = 6) was 1000 ± 100 µM. The “block of the agonist-gated current” value ([1]; −100 mV, 1 mM pentamidine) was “no such block”.

`NCCCCNCCCN` [spermidine] was tested, and the “activation of DiaaNaC (agonist activity)” value ([1]; −60 mV) was “neither activated”.

In the case of `NCCCNCCCCNCCCN` [spermine], the “activation of DiaaNaC (agonist activity)” value ([1]; −60 mV) is reported as “neither activated; also recorded: none of these compounds activated”.
